Measurements as given in patent US12226431B2 (priority 2021, dated 2025).

Columns and labels:
[1] = preservative in nasal sprays and nebulization; cited from earlier work
influenza virus = details: cited from earlier work
SARS-COV-2 = details: two weeks of receiving the quercetin treatment; cited from earlier work
cell plasma membrane = assay: Cells exposed to increasing concentration of M-βCD to deplete plasma membrane cholesterol: phospholipid uptake and membrane fusion proteins; format: cell-based
pseudorabies virus = details: cited from earlier work
vaccinia virus = details: depletion of plasma membrane cholesterol in host cells; cited from earlier work
[2] = increasing concentration of M-βCD, cholesterol depletion

Compound: OCc1ccccc1 [phenylcarbinol]
- adverse / toxic effects [1]: toxic effects

Compound: O=c1c(O)c(-c2ccc(O)c(O)c2)oc2cc(O)cc(O)c12 [quercetin]
- therapeutic effects against influenza virus (influenza virus): therapeutic effects
- SARS-COV-2 infected patients cleared of the virus (SARS-COV-2): 98%

Compound: Benzalkonium chloride
- adverse / toxic effects [1]: sino-nasal mucosal injury, nasal squamous metaplasia, ciliary dysmotility, genotoxicity, and other adverse effects

Compound: methyl beta cyclodextrin [M-βCD]
- uptake of phosphatidyl serine by the cell plasma membrane (cell plasma membrane; [2]): loss in the uptake
- uptake of phosphatidylethanolamine by the cell plasma membrane (cell plasma membrane; [2]): remain unchanged
- membrane fusion proteins syntaxin and SNAP25 at the plasma membrane (cell plasma membrane; loss of cholesterol from the cell plasma membrane): depletion of membrane fusion proteins
- entry of pseudorabies virus into cells (pseudorabies virus): significantly reduces
- entry of vaccinia virus into cells (vaccinia virus): significantly reduces
